In patent publication US8133849B2, “Herbicidal compounds” (Syngenta Limited, priority 2007, dated 2012):

Assays:
Test in all cases: Example B2 herbicidal action, post-emergence, pots in glasshouse, damage score 0-10
Type in all cases: in vivo
Settings in all cases: application post-emergence, rate 1000 g/ha, evaluated after 13 days
Setaria faberi = tested on: Setaria faberi
Procedure: (§1) Seeds of a variety of test species were sown in standard soil in pots. After 8 days cultivation (post-emergence) under controlled conditions in a glasshouse (at 24/16° C., day/night; 14 hours light; 65% humidity), the plants were sprayed with an aqueous spray solution derived from the formulation of the technical active ingredient in acetone/water (50:50) solution containing 0.5% Tween 20 (polyoxyethelyene sorbitan monolaurate, CAS RN 9005-64-5). The test plants were then grown in a glasshouse under controlled conditions in a glasshouse (at 24/16° C., day/night; 14 hours light; 65% humidity) and watered twice daily. After 13 days, the test was evaluated (10=total damage to plant; 0=no damage to plant).

Ipomea hederaceae = tested on: Ipomea hederaceae
Procedure: as §1

Echinochloa crus-galli = tested on: Echinochloa crus-galli
Procedure: as §1

Amaranthus retroflexus = tested on: Amaranthus retroflexus
Procedure: as §1

Solanum nigrum = tested on: Solanum nigrum
Procedure: as §1

Structure (SMILES) | SETFA damage score (10=total damage to plant; 0=no damage to plant) (Setaria faberi) | IPOHE damage score (10=total damage to plant; 0=no damage to plant) (Ipomea hederaceae) | ECHCG damage score (10=total damage to plant; 0=no damage to plant) (Echinochloa crus-galli) | AMARE damage score (10=total damage to plant; 0=no damage to plant) (Amaranthus retroflexus) | SOLNI damage score (10=total damage to plant; 0=no damage to plant) (Solanum nigrum)
COc1ccc(F)c(C2=C(OC(=O)C(C)(C)C)c3nccnc3N(CC(F)F)S2(=O)=O)c1Cl [Compound C25] | 0 | 9 | 6 | 9 | 10
COCN1c2nccnc2C(OC(=O)C(C)(C)C)=C(c2ccc(Cl)cc2Cl)S1(=O)=O [Compound C11] | 4 | 2 | 3 | 1 | 6
CCSC(=O)OC1=C(c2c(Cl)ccc(OC)c2F)S(=O)(=O)N(CC(F)F)c2nccnc21 [Compound C145] | 2 | 8 | 5 | 0 | 8
CCN1c2nccnc2C(OC(=O)C(C)C)=C(c2ccccc2OC(F)(F)F)S1(=O)=O [Compound C13] | 3 | 10 | 10 | 10 | 9
CCN1c2nccnc2C(O)=C(c2cc(Cl)ccc2C(F)(F)F)S1(=O)=O [Compound D52] | 4 | 5 | 4 | 5 | 7
CC#CCN1c2nccnc2C(OC(=O)SCC)=C(c2c(Cl)ccc(Cl)c2C(F)(F)F)S1(=O)=O [Compound C97] | 0 | 4 | 1 | 0 | 6
CCN1c2nccnc2C(OC(=O)C(C)C)=C(c2ccccc2[N+](=O)[O-])S1(=O)=O [Compound C67] | 0 | 2 | 0 | 0 | 1
CC(C)C(=O)OC1=C(c2ccccc2SC(F)(F)F)S(=O)(=O)N(CC(F)F)c2nccnc21 [Compound C18] | 0 | 6 | 1 | 9 | 3
CCSC(=O)OC1=C(c2ccccc2I)S(=O)(=O)N(CC(F)F)c2nccnc21 [Compound C82] | 8 | 10 | 9 | 10 | 10
CCN1c2nccnc2C(OC(=O)C(C)C)=C(c2ccc(Cl)c(Cl)c2)S1(=O)=O [Compound C26] | 0 | 0 | 0 | 9 | 0
C=CCN1c2nccnc2C(O)=C(c2cc(Cl)ccc2C(F)(F)F)S1(=O)=O [Compound D54] | 3 | 4 | 3 | 2 | 7
CCN1c2nccnc2C(O)=C(c2c(Cl)ccc(Cl)c2C(F)(F)F)S1(=O)=O [Compound D26] | 4 | 8 | 7 | 8 | 8
CSC(=O)OC1=C(c2c(Cl)ccc(Cl)c2Cl)S(=O)(=O)N(CC(F)F)c2nccnc21 [Compound C130] | 7 | 10 | 8 | 10 | 10
